Assay results taken from PubChem BioAssay (NCI).
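These data come from cells grown in 96-well plates and exposed to compound for 48 hours at five concentrations. Here, GI50 denotes the concentration required for 50% inhibition of growth. Definition used: TGI = concentration required for complete inhibition of growth.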

Columns and labels:
Experiment in all cases: inhibition of tumour cell growth, NCI panel, 48 h
SF-539 CNS = system: SF-539 CNS
OVCAR-5 ovarian = system: OVCAR-5 ovarian
K-562 leukemia = system: K-562 leukemia
PC-3 prostate = system: PC-3 prostate
M14 melanoma = system: M14 melanoma
786-0 renal = system: 786-0 renal
SN12C renal = system: SN12C renal
HCT-15 colon = system: HCT-15 colon
NCI-H23 lung = system: NCI-H23 lung
UO-31 renal = system: UO-31 renal
SK-MEL-28 melanoma = system: SK-MEL-28 melanoma
NCI-H522 lung = system: NCI-H522 lung
EKVX NSCLC = system: EKVX NSCLC
KM12 colon = system: KM12 colon
SF-295 CNS = system: SF-295 CNS
COLO 205 colon = system: COLO 205 colon
HS 578T breast = system: HS 578T breast
OVCAR-4 ovarian = system: OVCAR-4 ovarian
UACC-62 melanoma = system: UACC-62 melanoma
HCT-116 colon = system: HCT-116 colon
DU-145 prostate = system: DU-145 prostate
SNB-75 CNS = system: SNB-75 CNS
NCI/ADR-RES ovarian = system: NCI/ADR-RES ovarian
T-47D breast = system: T-47D breast
IGROV1 ovarian = system: IGROV1 ovarian
SNB-19 CNS = system: SNB-19 CNS
RXF 393 renal = system: RXF 393 renal
A498 renal = system: A498 renal
TK-10 renal = system: TK-10 renal
RPMI-8226 leukemia = system: RPMI-8226 leukemia
SK-MEL-5 melanoma = system: SK-MEL-5 melanoma
ACHN renal = system: ACHN renal
BT-549 breast = system: BT-549 breast
SF-268 CNS = system: SF-268 CNS
U251 CNS = system: U251 CNS
SK-OV-3 ovarian = system: SK-OV-3 ovarian
HOP-92 NSCLC = system: HOP-92 NSCLC
UACC-257 melanoma = system: UACC-257 melanoma
NCI-H226 lung = system: NCI-H226 lung
HL-60(TB) leukemia = system: HL-60(TB) leukemia
MOLT-4 leukemia = system: MOLT-4 leukemia
HOP-62 NSCLC = system: HOP-62 NSCLC
MDA-MB-231 breast = system: MDA-MB-231 breast
A549 NSCLC = system: A549 NSCLC
OVCAR-8 ovarian = system: OVCAR-8 ovarian
SR leukemia = system: SR leukemia
MCF7 breast = system: MCF7 breast
MDA-MB-435 = system: MDA-MB-435
CAKI-1 renal = system: CAKI-1 renal
NCI-H460 lung = system: NCI-H460 lung
SK-MEL-2 melanoma = system: SK-MEL-2 melanoma
HCC-2998 colon = system: HCC-2998 colon
SW-620 colon = system: SW-620 colon
CCRF-CEM leukemia = system: CCRF-CEM leukemia
MALME-3M melanoma = system: MALME-3M melanoma
HT29 colon = system: HT29 colon

Q: Which results are given for `O=C(NCCCNc1cc(-c2cn(-c3ccccc3)nc2-c2cccc(O)c2)ccn1)Nc1cccc(C(F)(F)F)c1`?
A: GI50 (SF-539 CNS): 2.78 µM; TGI (SF-539 CNS): 7.18 µM; GI50 (OVCAR-5 ovarian): 3.96 µM; TGI (OVCAR-5 ovarian): 9.71 µM; GI50 (K-562 leukemia): 1.26 µM; TGI (K-562 leukemia): 33.3 µM; GI50 (PC-3 prostate): 1.79 µM; TGI (PC-3 prostate): 11.2 µM; GI50 (M14 melanoma): 2.18 µM; TGI (M14 melanoma): 6.99 µM; GI50 (786-0 renal): 1.07 µM; TGI (786-0 renal): 3.71 µM; GI50 (SN12C renal): 3.65 µM; TGI (SN12C renal): 7.91 µM; GI50 (HCT-15 colon): 1.06 µM; TGI (HCT-15 colon): 4.32 µM; GI50 (NCI-H23 lung): 4.34 µM; TGI (NCI-H23 lung): 9.34 µM; GI50 (UO-31 renal): 2.1 µM; TGI (UO-31 renal): 10.8 µM; GI50 (SK-MEL-28 melanoma): 3.48 µM; TGI (SK-MEL-28 melanoma): 7.51 µM; GI50 (NCI-H522 lung): 5.12 µM; TGI (NCI-H522 lung): 11 µM; GI50 (EKVX NSCLC): 3.5 µM; TGI (EKVX NSCLC): 8.45 µM; GI50 (KM12 colon): 2.63 µM; TGI (KM12 colon): 7.39 µM; GI50 (SF-295 CNS): 1.76 µM; TGI (SF-295 CNS): 6.42 µM; GI50 (COLO 205 colon): 2.97 µM; TGI (COLO 205 colon): 8.72 µM; GI50 (HS 578T breast): 1.34 µM; TGI (HS 578T breast): 7.74 µM; GI50 (OVCAR-4 ovarian): 2.13 µM; TGI (OVCAR-4 ovarian): 7.75 µM; GI50 (UACC-62 melanoma): 4.41 µM; TGI (UACC-62 melanoma): 8.84 µM; GI50 (HCT-116 colon): 1.97 µM; TGI (HCT-116 colon): 6.33 µM; GI50 (DU-145 prostate): 4.8 µM; TGI (DU-145 prostate): 11.9 µM; GI50 (SNB-75 CNS): 0.743 µM; TGI (SNB-75 CNS): 4.1 µM; GI50 (NCI/ADR-RES ovarian): 4.9 µM; TGI (NCI/ADR-RES ovarian): 12.8 µM; GI50 (T-47D breast): 3.42 µM; TGI (T-47D breast): 16.7 µM; GI50 (IGROV1 ovarian): 2.83 µM; TGI (IGROV1 ovarian): 7.89 µM; GI50 (SNB-19 CNS): 3.99 µM; TGI (SNB-19 CNS): 8.97 µM; GI50 (RXF 393 renal): 1.08 µM; TGI (RXF 393 renal): 4.96 µM; GI50 (A498 renal): 3.17 µM; TGI (A498 renal): 7.18 µM; GI50 (TK-10 renal): 5.75 µM; TGI (TK-10 renal): 13.2 µM; GI50 (RPMI-8226 leukemia): 0.727 µM; TGI (RPMI-8226 leukemia): 6.12 µM; GI50 (SK-MEL-5 melanoma): 3.25 µM; TGI (SK-MEL-5 melanoma): 7.16 µM; GI50 (ACHN renal): 5.23 µM; TGI (ACHN renal): 15.5 µM; GI50 (BT-549 breast): 3.26 µM; TGI (BT-549 breast): 7.63 µM; GI50 (SF-268 CNS): 3.26 µM; TGI (SF-268 CNS): 9.69 µM; GI50 (U251 CNS): 2.57 µM; TGI (U251 CNS): 7.45 µM; GI50 (SK-OV-3 ovarian): 4.49 µM; TGI (SK-OV-3 ovarian): 10.1 µM; GI50 (HOP-92 NSCLC): 1.25 µM; TGI (HOP-92 NSCLC): 6.01 µM; GI50 (UACC-257 melanoma): 4.8 µM; TGI (UACC-257 melanoma): 10.1 µM; GI50 (NCI-H226 lung): 4.88 µM; TGI (NCI-H226 lung): 11.5 µM; GI50 (HL-60(TB) leukemia): 3.42 µM; TGI (HL-60(TB) leukemia): 14.5 µM; GI50 (MOLT-4 leukemia): 1.67 µM; TGI (MOLT-4 leukemia): 15 µM; GI50 (HOP-62 NSCLC): 4.09 µM; TGI (HOP-62 NSCLC): 9.59 µM; GI50 (MDA-MB-231 breast): 2.85 µM; TGI (MDA-MB-231 breast): 7.76 µM; GI50 (A549 NSCLC): 3.35 µM; TGI (A549 NSCLC): 11.2 µM; GI50 (OVCAR-8 ovarian): 3.88 µM; TGI (OVCAR-8 ovarian): 10 µM; GI50 (SR leukemia): 1.65 µM; TGI (SR leukemia): 12.8 µM; GI50 (MCF7 breast): 2.73 µM; TGI (MCF7 breast): 9.39 µM; GI50 (MDA-MB-435): 3.41 µM; TGI (MDA-MB-435): 7.57 µM; GI50 (CAKI-1 renal): 1.9 µM; TGI (CAKI-1 renal): 12.3 µM; GI50 (NCI-H460 lung): 3.48 µM; TGI (NCI-H460 lung): 8.89 µM; GI50 (SK-MEL-2 melanoma): 5.29 µM; TGI (SK-MEL-2 melanoma): 11.7 µM; GI50 (HCC-2998 colon): 1.26 µM; TGI (HCC-2998 colon): 4.34 µM; GI50 (SW-620 colon): 3.85 µM; TGI (SW-620 colon): 8.31 µM; GI50 (CCRF-CEM leukemia): 1.71 µM; TGI (CCRF-CEM leukemia): 33.3 µM; GI50 (MALME-3M melanoma): 1.54 µM; TGI (MALME-3M melanoma): 6.08 µM; GI50 (HT29 colon): 1.51 µM; TGI (HT29 colon): 6.19 µM
